pIC50: −log10 of the molar value.
Target: T1, cPLA2 (Homo sapiens, UniProt P47712)
T1 sequence (P47712 1-749): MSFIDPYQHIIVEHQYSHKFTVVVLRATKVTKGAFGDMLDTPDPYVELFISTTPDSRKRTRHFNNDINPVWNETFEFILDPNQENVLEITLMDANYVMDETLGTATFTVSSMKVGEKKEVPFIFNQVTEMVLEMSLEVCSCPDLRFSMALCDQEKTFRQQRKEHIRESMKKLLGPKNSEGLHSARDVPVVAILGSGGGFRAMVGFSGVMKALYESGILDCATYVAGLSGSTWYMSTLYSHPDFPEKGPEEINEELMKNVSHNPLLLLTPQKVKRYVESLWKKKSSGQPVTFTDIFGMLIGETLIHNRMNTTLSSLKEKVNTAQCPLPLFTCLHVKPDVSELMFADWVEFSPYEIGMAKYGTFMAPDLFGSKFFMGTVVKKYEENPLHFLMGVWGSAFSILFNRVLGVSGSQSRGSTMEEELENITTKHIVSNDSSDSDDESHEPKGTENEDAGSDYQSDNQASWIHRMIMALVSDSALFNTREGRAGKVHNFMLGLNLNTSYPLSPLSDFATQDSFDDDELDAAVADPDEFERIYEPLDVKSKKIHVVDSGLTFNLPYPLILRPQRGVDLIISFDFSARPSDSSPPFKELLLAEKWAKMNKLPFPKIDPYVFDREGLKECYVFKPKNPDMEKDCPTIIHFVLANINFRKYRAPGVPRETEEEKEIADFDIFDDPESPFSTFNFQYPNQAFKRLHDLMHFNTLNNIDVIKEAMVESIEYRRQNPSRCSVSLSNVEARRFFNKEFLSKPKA
Assay: Coumarine assay (hydrolysis of 7-hydroxycoumarinyl 6-heptenoate)
Type: biochemical
Conditions: 60 μM 7-hydroxycoumarinyl 6-heptenoate, pH 7.5; read-out: Coumarin IC50

Compound	pIC50
O=C(O)c1ccc(OCCc2c(CCNS(=O)(=O)CSc3ccc(Cl)cc3Cl)n(C(c3ccccc3)c3ccccc3)c3ccc(Cl)cc23)cc1 [Example 287, 4-[2-(1-benzhydryl-5-chloro-2-{2-[([[(2,4-dichlorophenyl)sulfanyl]methyl}sulfonyl)amino]ethyl}-1H-indol-3-yl)ethoxy]benzoic acid]	6.38
Cc1nn(C)c(C)c1S(=O)(=O)NCCc1c(CCOc2ccc(C(=O)O)cc2)c2cc(Cl)ccc2n1C(c1ccccc1)c1ccccc1 [Example 213, 4-{2-[1-benzhydryl-5-chloro-2-(2-{[(1,3,5-trimethyl-1H-pyrazol-4-yl)sulfonyl]amino}ethyl)-1H-indol-3-yl]ethoxy}benzoic acid]	6.35
COc1ccc(S(=O)(=O)NCCc2c(CCOc3ccc(C(=O)O)cc3)c3cc(Cl)ccc3n2C(c2ccccc2)c2ccccc2)c([N+](=O)[O-])c1 [Example 197, 4-(2-{1-Benzhydryl-5-chloro-2-[2-(4-methoxy-2-nitro-benzenesulfonylamino)-ethyl]-1H-indol-3-yl}-ethoxy)-benzoic acid]	6.40
4-(2-{1-benzhydryl-5-chloro-2-[2-({[(5,6-dichloropyridine-2-yl)methyl]sulfonyl}amino)ethyl]-1H-indol-3-yl}ethoxy)benzoic acid [Example 76]	6.40
Cc1nc(S(=O)(=O)NCCc2c(CCOc3ccc(C(=O)O)cc3)c3cc(Cl)ccc3n2C(c2ccccc2)c2ccccc2)cn1C [Example 258, 4-{2-[1-benzhydryl-5-chloro-2-(2-{[(1,2-dimethyl-1H-imidazol-4-yl)sulfonyl]amino}ethyl)-1H-indol-3-yl]ethoxy}benzoic acid]	6.10
O=C(O)c1ccc(CCCc2c(CCNS(=O)(=O)Cc3ccc(Cl)cc3)n(C(c3ccccc3)c3ccccc3)c3ccc(Cl)cc23)cc1 [Example 60, 4-{3-[1-benzhydryl-5-chloro-2-(2-{[(4-chlorobenzyl)sulfonyl]amino}ethyl)-1H-indol-3-yl]propyl}benzoic acid]	6.82
O=C(O)c1ccc(OCCc2c(CCNS(=O)(=O)C[S+]([O-])c3ccc(Cl)c(Cl)c3)n(C(c3ccccc3)c3ccccc3)c3ccc(Cl)cc23)cc1 (stereo not drawn) [Example 289, 4-[2-(1-benzhydryl-5-chloro-2-{2-[({[(3,4-dichlorophenyl)sulfinyl]methyl}sulfonyl)amino]ethyl}-1H-indol-3-yl)ethoxy]benzoic acid]	6.05
NC(=O)C1CCCN1CCS(=O)(=O)NCCc1c(CCOc2ccc(C(=O)O)cc2)c2cc(Cl)ccc2n1C(c1ccccc1)c1ccccc1 (stereo not drawn) [Example 247, 4-[2-(1-Benzhydryl-2-{2-[2-(2-carbamoyl-pyrrolidin-1-yl)-ethanesulfonylamino]-ethyl}-5-chloro-1H-indol-3-yl)-ethoxy]-benzoic acid]	5.92
CC1CCN(CCS(=O)(=O)NCCc2c(CCOc3ccc(C(=O)O)cc3)c3cc(Cl)ccc3n2C(c2ccccc2)c2ccccc2)CC1 [Example 245, 4-(2-{1-benzhydryl-5-chloro-2-[2-({[2-(4-methylpiperidin-1-yl)ethyl]sulfonyl}amino)ethyl]-1H-indol-3-yl}ethoxy)benzoic acid]	6.05
O=C(O)c1ccc(OCCc2c(CCNS(=O)(=O)CSc3ccc(Cl)c(Cl)c3)n(C(c3ccccc3)c3ccccc3)c3ccc(Cl)cc23)cc1 [Example 220, 4-[2-(1-benzhydryl-5-chloro-2-{2-[({[(3,4-dichlorophenyl)thio]methyl}sulfonyl)amino]ethyl}-1H-indol-3-yl)ethoxy]benzoic acid]	6.40
O=C(O)CCc1ccc(S(=O)(=O)CCc2c(CCNS(=O)(=O)Cc3ccccc3)n(C(c3ccccc3)c3ccccc3)c3ccc(Cl)cc23)cc1 [Example 130, 3-(4-{[2-(1-Benzhydryl-2-{2-[(benzylsulfonyl)amino]ethyl}-5-chloro-1H-indol-3-yl)ethyl]sulfonyl}phenyl)propanoic acid]	6.77
CC(=O)N1C(C)CN(CCS(=O)(=O)NCCc2c(CCOc3ccc(C(=O)O)cc3)c3cc(Cl)ccc3n2C(c2ccccc2)c2ccccc2)CC1C (stereo not drawn) [Example 244, 4-[2-(2-{2-[2-(4-Acetyl-3,5-dimethyl-piperazin-1-yl)-ethanesulfonylamino]-ethyl}-1-benzhydryl-5-chloro-1H-indol-3-yl)-ethoxy]-benzoic acid]	5.89
O=C(O)c1ccc(OCCc2c(CCNS(=O)(=O)c3ccsc3)n(C(c3ccccc3)c3ccccc3)c3ccc(Cl)cc23)cc1 [Example 178, 4-[2-(1-benzhydryl-5-chloro-2-{2-[(thien-3-ylsulfonyl)amino]ethyl}-1H-indol-3-yl)ethoxy]benzoic acid]	6.19
Cc1cccc(Cl)c1S(=O)(=O)NCCc1c(CCOc2ccc(C(=O)O)c(F)c2)c2cc(Cl)ccc2n1C(c1ccccc1)c1ccccc1 [Example 191, 4-(2-{1-Benzhydryl-5-chloro-2-[2-(2-chloro-6-methyl-benzenesulfonylamino)-ethyl]-1H-indol-3-yl}-ethoxy)-2-fluoro-benzoic acid]	6.70

Now from value to compound:

pIC50	Compound
6.35	N#Cc1ccccc1S(=O)(=O)NCCc1c(CCCc2ccc(C(=O)O)cc2)c2cc(Cl)ccc2n1C(c1ccccc1)c1ccccc1 [Example 155, 4-{3-[1-benzhydryl-5-chloro-2-(2-{[(2-cyanophenyl)sulfonyl]amino}ethyl)-1H-indol-3-yl]propyl}benzoic acid]
6.40	Cc1nc(-c2ccc(S(=O)(=O)NCCc3c(CCCc4ccc(C(=O)O)cc4)c4cc(Cl)ccc4n3C(c3ccccc3)c3ccccc3)s2)cs1 [Example 176, 4-(3-{1-benzhydryl-5-chloro-2-[2-({[5-(2-methyl-1,3-thiazol-4-yl)thien-2-yl]sulfonyl}amino)ethyl]-1H-indol-3-yl}propyl)benzoic acid]
6.27	Cc1c(Cl)cccc1S(=O)(=O)NCCc1c(CCOc2ccc(C(=O)O)cc2)c2cc(Cl)ccc2n1C(c1ccccc1)c1ccccc1 [Example 241, 4-{2-[1-benzhydryl-5-chloro-2-(2-{[(3-chloro-2-methylphenyl)sulfonyl]amino}ethyl)-1H-indol-3-yl]ethoxy}benzoic acid]
6.22	O=C(O)c1ccc(S(=O)(=O)CCc2c(CCNS(=O)(=O)c3ccccc3Cl)n(C(c3ccccc3)c3ccccc3)c3ccc(Cl)cc23)cc1 [Example 256, 4-({2-[1-benzhydryl-5-chloro-2-(2-{[(2-chlorophenyl)sulfonyl]amino}ethyl)-1H-indol-3-yl]ethyl}sulfonyl)benzoic acid]
6.85	O=C(O)c1ccc(CCCc2c(CCNS(=O)(=O)c3cccc(C(F)(F)F)c3)n(C(c3ccccc3)c3ccccc3)c3ccc(Cl)cc23)cc1 [Example 218, 4-(3-{1-Benzhydryl-5-chloro-2-[2-({[3-(trifluoromethyl)phenyl]sulfonyl}amino)ethyl]-1H-indol-3-yl}propyl)benzoic acid]
6.82	Cc1c(S(=O)(=O)NCCc2c(CCCc3ccc(C(=O)O)cc3)c3cc(Cl)ccc3n2C(c2ccccc2)c2ccccc2)cnn1-c1ccccc1 [Example 210, 4-{3-[1-benzhydryl-5-chloro-2-(2-{[(5-methyl-1-phenyl-1H-pyrazol-4-yl)sulfonyl]amino}ethyl)-1H-indol-3-yl]propyl}benzoic acid]
6.49	Cc1c(Cl)cccc1S(=O)(=O)NCCc1c(CCCc2ccc(C(=O)O)cc2)c2cc(Cl)ccc2n1C(c1ccccc1)c1ccccc1 [Example 240, 4-{3-[1-benzhydryl-5-chloro-2(2-{[(3-chloro-2-methylphenyl)sulfonyl]amino}ethyl)-1H-indol-3-yl]propyl}benzoic acid]
6.43	CS(=O)(=O)c1ccccc1S(=O)(=O)NCCc1c(CCOc2ccc(C(=O)O)cc2)c2cc(Cl)ccc2n1C(c1ccccc1)c1ccccc1 [Example 205]
6.80	Cc1cccc(Cl)c1S(=O)(=O)NCCc1c(CCOc2ccc(C(=O)O)cc2)c2cc(Cl)ccc2n1C(c1ccccc1)c1ccccc1 [Example 227, 4-{2-[1-benzhydryl-5-chloro-2-(2-{[(2-chloro-6-methylphenyl)sulfonyl]amino}ethyl)-1H-indol-3-yl]ethoxy}benzoic acid]
6.57	O=C(O)c1ccc(CCCc2c(CCNS(=O)(=O)c3cc(F)c(Cl)cc3F)n(C(c3ccccc3)c3ccccc3)c3ccc(Cl)cc23)cc1 [Example 168, 4-{3-[1-benzhydryl-5-chloro-2-(2-{[(4-chloro-2,5-difluorophenyl)sulfonyl]amino}ethyl)-1H-indol-3-yl]propyl}benzoic acid]
6.46	O=C(O)c1ccc(OCCc2c(CCNS(=O)(=O)c3ccccc3OCc3ccccc3)n(C(c3ccccc3)c3ccccc3)c3ccc(Cl)cc23)cc1 [Example 184, 4-(2-{1-Benzhydryl-2-[2-(2-benzyloxy-benzenesulfonylamino)-ethyl]-5-chloro-1H-indol-3-yl}-ethoxy)benzoic acid]
6.89	Cc1ccccc1S(=O)(=O)NCCc1c(CCCc2ccc(C(=O)O)cc2)c2cc(Cl)ccc2n1C(c1ccccc1)c1ccccc1 [Example 232]
6.60	O=C(O)c1ccc(CCCc2c(CCNS(=O)(=O)c3c(F)cccc3F)n(C(c3ccccc3)c3ccccc3)c3ccc(Cl)cc23)cc1 [Example 224]

— patent US7605156B2, “Methods for the use of inhibitors of cytosolic phospholipase A2” (Wyeth, priority 2001, dated 2009)
